Reference: patent publication US12496297B1, “Compositions of autophagy modulating agents and uses thereof” (Washington University, priority 2020, dated 2025)

Test system: α1-antitrypsin Z variant (ATZ)
Assay: Steady state levels of ATZ in HTO/Z cell line (immunoblot); activity of G2 analogs
Format: cell-based, human
Settings: for Activity: G2 and G2 analogs, positive activity if shown to have any activity, not quantified; for IC50: TABLE 1, assay not given
Description: For experiments with G2 analogs, Tet-off inducible cell lines were cultured in absence of doxycycline for at least 12 days to ensure expression of […] or its variants. The cells were then sub-cultured into separate monolayers in fresh complete growth medium and incubated for 48 hours in the absence or presence of G2 analog. […] All compounds available commercially were purchased except for G2-22, which was synthesized with routine chemistry.
Cells were lysed in NP40 buffer and then separated into insoluble and soluble fractions according to a previously established technique. Samples were subjected to immunoblot analysis for AT and GAPDH. For immmunoblot analysis to detect AT or GAPDH, cells were lysed in 50 mM Tris-HCl, 150 mM NaCl, 1% NP-40, pH 8.0. Protein concentrations were determined by BCA protein assay (Pierce Biotechnology, Rockford, IL). […] The membranes were blocked in 5% milk and then incubated overnight at 4° C. with primary antibody for AT (1:1000, Diasorin), LC3 (1:2000, Sigma), p62 (1:1000, Cell signaling, Danvers, MA), ATG5 (1:1000, Cell signaling), mTOR substrate sampler (1:1000 for all antibodies, Cell signaling). Donkey anti-goat Ig (Jackson Labs, Bar Harbor, ME), goat anti-rabbit lg (1:50,000), or goat anti-mouse Ig (1:50,000) were used as secondary antibodies in TBST at RT, 1 hour. Blots were visualized with ECL or West Femto from Pierce. Membranes were re-probed with GAPDH (1:5000, Sigma) as loading control. Insoluble samples were stained with Gel Code Blue as loading control.

IC50 [nM]	SMILES	Activity	effect on cellular ATZ levels (48 hrs incubation, immunoblot, FIG. 8 / FIG. 14)
–	CNC(=O)c1cc(Cl)ccc1OC [G2-3, 5-chloro-2-methoxy-N-methylbenzamide]	Active	–
–	CNC(=O)c1cc(F)ccc1OC [G2-4, 5-fluoro-2-methoxy-N-methylbenzamide]	Inactive	–
–	NC(=O)c1cc(Cl)ccc1OC(F)(F)F [G2-6, 5-chloro-2-(trifluoromethoxy)benzamide]	Inactive	–
–	CN1CCNC(=O)c2cc(Cl)ccc21 [G2-11, 7-chloro-1-methyl-1,2,3,4-tetrahydro-5H-benzo[e][1,4]diazepin-5-one]	Inactive	–
–	CNC(=O)c1cc(Cl)ccc1OC1CC1 [G2-12, 5-chloro-2-cyclopropoxy-N-methylbenzamide]	Active	–
–	CNC(=O)c1cc(Cl)ccc1OC1CCN(C2CCCC2)CC1 [G2-12-2, 5-chloro-2-((1-cyclopentylpiperidin-4-yl)oxy)-N-methylbenzamide]	Inactive	–
–	CNC(=O)c1cc(Cl)ccc1OCc1ccccc1 [G2-12-3, 2-(benzyloxy)-5-chloro-N-methylbenzamide]	Inactive	–
–	COc1ccc(Cl)cc1C(=O)N(C)C [G2-13, 5-chloro-2-methoxy-N,N-dimethylbenzamide]	Active	–
–	COc1ccc(Cl)cc1C(=O)NCC(C)C [G2-14, 5-chloro-N-isobutyl-2-methoxybenzamide]	Inactive	–
–	COc1ccc(Cl)cc1C(=O)NCCCCO [G2-15, 5-chloro-N-(4-hydroxybutyl)-2-methoxybenzamide]	Inactive	–
–	CNC(=O)c1cc(Cl)ccc1Oc1ccc(Cl)cc1 [G2-16, 5-chloro-2-(4-chlorophenoxy)-N-methylbenzamide]	Inactive	–
–	CNC(=O)c1cc(Cl)ccc1OCCC(C)C [G2-17, 5-chloro-2-(isopentyloxy)-N-methylbenzamide]	Inactive	–
–	Cn1ccc2c(Cl)cccc2c1=O [G2-22, 5-chloro-2-methylisoquinolin-1(2H)-one]	Active	–
–	Cn1ccc2ccc(Cl)cc2c1=O [G2-23, 7-chloro-2-methylisoquinolin-1(2H)-one]	Inactive	–
–	Cn1ccc2cccc(Cl)c2c1=O [G2-24, 8-chloro-2-methylisoquinolin-1(2H)-one]	Inactive	–
–	O=c1[nH]ccc2cc(Cl)ccc12 [G2-25, 6-chloroisoquinolin-1(2H)-one]	Active	–
–	Cn1cnc2cc(Cl)ccc2c1=O [G2-27, 7-chloro-3-methylquinazolin-4(3H)-one]	Inactive	–
–	CN1Cc2cc(Cl)ccc2C1=O [G2-28, 5-chloro-2-methylisoindolin-1-one]	Active	–
–	Cn1ccc2cc(S(C)(=O)=O)ccc2c1=O [G2-29, 2-methyl-6-(methylsulfonyl)isoquinolin-1(2H)-one]	Active	–
–	COc1ccc2c(=O)n(C)ccc2c1 [G2-30, 6-methoxy-2-methylisoquinolin-1(2H)-one]	Active	–

IC50 [nM]	SMILES	Activity	effect on cellular ATZ levels (48 hrs incubation, immunoblot, FIG. 8 / FIG. 14)
–	Cn1ccc2cc(C#N)ccc2c1=O [G2-31, 2-methyl-1-oxo-1,2-dihydroisoquinoline-6-carbonitrile]	Inactive	–
–	Cn1ccc2ccccc2c1=O [G2-34, 2-methylisoquinolin-1(2H)-one]	Inactive	–
–	Cn1c(=O)ccc2cc(Cl)ccc21 [G2-37, 6-chloro-1-methylquinolin-2(1H)-one]	Active	–
–	Cc1cn(C)c(=O)c2ccc(Cl)cc12 [G2-38, 6-chloro-2,4-dimethylisoquinolin-1(2H)-one]	Inactive	–
–	Cn1ccc2cc(-c3ccccn3)ccc2c1=O [G2-39, 2-methyl-6-(pyridin-2-yl)isoquinolin-1(2H)-one]	Inactive	–
–	CNC(=O)c1cccc(Cl)c1OC [G2-40, 3-chloro-2-methoxy-N-methylbenzamide]	Inactive	–
–	Cn1ccc2cc(-c3ccccc3)ccc2c1=O [G2-41, 2-methyl-6-phenylisoquinolin-1(2H)-one]	Active	–
–	Cn1ccc2cc(-c3ccncc3)ccc2c1=O [G2-42, 2-methyl-6-(pyridin-4-yl)isoquinolin-1(2H)-one]	Active	–
–	Cn1ccc2cc(-c3cccnc3)ccc2c1=O [G2-43, 2-methyl-6-(pyridin-3-yl)isoquinolin-1(2H)-one]	Inactive	–
–	CN(C)c1ccc2c(=O)n(C)ccc2c1 [G2-44, 6-(dimethylamino)-2-methylisoquinolin-1(2H)-one]	Inactive	–
–	Cn1ccc2cc(N3CCCC3)ccc2c1=O [G2-45, 2-methyl-6-(pyrrolidin-1-yl)isoquinolin-1(2H)-one]	Active	–
–	Cn1ccc2cc(N3CC4(COC4)C3)ccc2c1=O [G2-46, 2-methyl-6-(2-oxa-6-azaspiro[3.3]heptan-6-yl)isoquinolin-1(2H)-one]	Inactive	–
–	Cn1ccc2cc(Nc3ccccc3)ccc2c1=O [G2-47, 2-methyl-6-(phenylamino)isoquinolin-1(2H)-one]	Inactive	–
–	CN(c1ccccc1)c1ccc2c(=O)n(C)ccc2c1 [G2-48, 2-methyl-6-(methyl(phenyl)amino)isoquinolin-1(2H)-one]	Active	–
–	Cn1ccc2cc(Nc3ccccn3)ccc2c1=O [G2-49, 2-methyl-6-(pyridin-2-ylamino)isoquinolin-1(2H)-one]	Inactive	–
–	Cn1ncc2cc(Cl)ccc2c1=O [G2-51, 6-chloro-2-methylphthalazin-1(2H)-one]	Active	–
–	CCn1ccc2cc(Cl)ccc2c1=O [G2-52, 6-chloro-2-ethylisoquinolin-1(2H)-one]	Inactive	–
–	O=c1c2ccc(Cl)cc2ccn1-c1ccccc1 [G2-53, 6-chloro-2-phenylisoquinolin-1(2H)-one]	Inactive	–
–	Cn1c(=O)ccc2ccc(Cl)cc21 [G2-54, 7-chloro-1-methylquinolin-2(1H)-one]	Active (Highly Active)	–
–	CNC(=O)c1ccc(Cl)cc1OC [G2-55, 4-chloro-2-methoxy-N-methylbenzamide]	Inactive	–

IC50 [nM]	SMILES	Activity	effect on cellular ATZ levels (48 hrs incubation, immunoblot, FIG. 8 / FIG. 14)
–	Cn1c(=O)ccc2cc(Cl)ccc21 [G2-58, 6-chloro-1-methylquinolin-2(1H)-one]	Inactive	–
–	Cn1ccc2cc(-c3ncccn3)ccc2c1=O [G2-59, 2-methyl-6-(pyrimidin-2-yl)isoquinolin-1(2H)-one]	Inactive	–
–	CCCCc1ccc2c(=O)n(C)ccc2c1 [G2-60, 6-butyl-2-methylisoquinolin-1(2H)-one]	Inactive	–
–	Cn1ccc2cc(N3CCCCC3)ccc2c1=O [G2-61, 2-methyl-6-(piperidin-1-yl)isoquinolin-1(2H)-one]	Inactive	–
–	Cn1ccc2cc(N3CCC(c4ccccc4)CC3)ccc2c1=O [G2-62, 2-methyl-6-(4-phenylpiperidin-1-yl)isoquinolin-1(2H)-one]	Inactive	–
–	Cn1ccc2cc(-c3ccc(Cl)cc3)ccc2c1=O [G2-63, 6-(4-chlorophenyl)-2-methylisoquinolin-1(2H)-one]	Inactive	–
–	Cn1ccc2cc(-c3ccn[nH]3)ccc2c1=O [G2-65, 2-methyl-6-(1H-pyrazol-5-yl)isoquinolin-1(2H)-one]	Inactive	–
–	Cn1ccc2cc(S(N)(=O)=O)ccc2c1=O [G2-67, 2-methyl-1-oxo-1,2-dihydroisoquinoline-6-sulfonamide]	Inactive	–
100 to 1000	O=c1ccc2ccc(Cl)cc2[nH]1 [G2-69, 7-chloroquinolin-2(1H)-one]	Active (Most Highly Active)	–
–	O=c1ncc2cc(Cl)ccc2[nH]1 [G2-71, 6-chloroquinazolin-2(1H)-one]	Inactive	–
–	Cn1c(=O)ccc2ccc(-c3cccnc3)cc21 [G2-83, 1-methyl-7-(pyridin-3-yl)quinolin-2(1H)-one]	Inactive	–
–	Cn1c(=O)ccc2ccc(Nc3ccccn3)cc21 [G2-91, 1-methyl-7-(pyridin-2-ylamino)quinolin-2(1H)-one]	Inactive	–
1000 to 10000	O=c1ccc2ccc(F)cc2[nH]1 [G2-124, 7-fluoroquinolin-2(1H)-one]	Active	–
1000 to 10000	O=c1ccc2ccc(C3CC3)cc2[nH]1 [G2-156, 7-cyclopropylquinolin-2(1H)-one]	Active	–
1000 to 10000	O=c1ccc2c(N3CCCCC3)cc(Cl)cc2[nH]1 [G2-195, 7-chloro-5-(piperidin-1-yl)quinolin-2(1H)-one]	Active	–
1000 to 10000	O=c1ccc2c(-c3ccccc3)cc(Cl)cc2[nH]1 [G2-196, 7-chloro-5-phenylquinolin-2(1H)-one]	Active	–
1000 to 10000	O=c1ccc2c(-c3ncccn3)cc(Cl)cc2[nH]1 [G2-197, 7-chloro-5-(pyrimidin-2-yl)quinolin-2(1H)-one]	Active	–
100 to 1000	CCCCCCOc1cc(Cl)cc2[nH]c(=O)ccc12 [G2-218, 7-chloro-5-(hexyloxy)quinolin-2(1H)-one]	Active	reduce ATZ levels in a dose-dependent manner
